# Data: patent US20200268762A1, “7-SUBSTITUTED SULFONIMIDOYLPURINONE COMPOUNDS AND DERIVATIVES FOR THE TREATMENT AND PROPHYLAXIS OF LIVER CANCER” (Hoffmann-La Roche Inc., priority 2019, published 2020)
# “Also recorded” adds a separate entry of the source.
# What was measured:
# [1] = system: PD-L1 expression on tumor cells; experiment: PD-L1 expression on tumor cells of iAST mice by flow cytometry; type: in vivo, mouse; details: day 12 after treatment start
# Method: Tumors from iAST mice were treated as described in FIG. 1. […] For flow cytometry, tumors were excised and single cell suspensions obtained by mechanical processing and enzymatic digestion (DNAse 0.01%, Collagenase IV 1 mg/ml). Staining procedures started with Fc receptor blocking using 2.4G2 antibody clone (1:200 dilution, BD Bioscience), and the following antibodies (clones) were used to analyzed leukocyte infiltrate: CD45-FITC (30-F11, BioLegend) and CD11b-BUV737 (M1/70, BD Bioscience). Samples were acquired using a LSR Fortessa machine (BD Bioscience) and analyzed by FlowJo version 10 (Treestar).
# [2] = system: Hep55.1c tumor bearing mice; experiment: Transplanted Hep55.1c mouse model of hepatocellular carcinoma, tumor volume by μCT; type: in vivo, C57BL/6N mice; details: Hep55.1c intrahepatic tumors; 41-A 10 mg/kg weekly oral; anti-CD40 4 mg/kg single dose; vs vehicle
# Method: Female C57BL/6N mice (Jackson Laboratories) were injected intra hepatically with 5×10^5 Hep55.1c tumor cell line together with Matrigel (Matrigel Basement Membrane Matrix, Corning Cat #354234) in a total volume of […] (10 μl cell suspension plus 10 μl Martigel). Tumor volume was monitored weekly using μCT (TomoScope Synergy Twin, CT Imaging GmbH) upon a single intravenous administration of contrasting agent Exitron 6000 (Viscovert). Imaging data were reconstructed by TomoScope software and analyzed using Osirix software. […] To compare to another agonistic, immune stimulating agent, a single dose of anti-CD40 antibody (4 mg/kg; clone FGK.45, BioXCell) was given. Data depicted are means±SEM for a minimum of n=9 animals per group.
# [3] = system: Hep55.1c mouse model of hepatocellular carcinoma; experiment: Hep55.1c tumor fragment transplantation model, survival; type: in vivo, C57BL/6N mice; details: alive on day 94 after tumor fragment transplantation; 41-A weekly oral, anti-PD-1 250 μg i.p. 8 doses
# Method: Female C57BL/6N mice (Jackson Laboratories) were injected intra hepatically with 5×10^5 Hep55.1c tumor cell line together with Matrigel (Matrigel Basement Membrane Matrix, Corning Cat #354234) in a total volume of 20 μl (10 μl cell suspension plus 10 μl Martigel). After 3 weeks, animals were sacrificed and tumors excised from the liver. Excised tumors were cut into 1×1 mm^3 pieces and implanted into the liver of female C57BL/6N mice. Scout animals were sacrificed to determine the time point of treatment start at about 80 mm^3 tumor volume. […] 41-A was given weekly, while anti-PD-1 antibody treatment started one day after 41-A treatment and was continued every three to four days for 8 doses in total. Treatment with both agents was stopped after the last anti-PD-1 administration.
# [4] = system: iAST mouse model of hepatocellular carcinoma; experiment: iAST mouse model of hepatocellular carcinoma, tumor burden; details: iAST mice, day 12 after treatment start; 41-A 10 mg/kg once a week oral, Sorafenib 90 mg/kg daily
# Method: Per group n=10 were analyzed by One-way ANOVA and Tukey correction shown as individual dots with means±SEM using GraphPad Prism software version 6.
smiles,measurement,setting,value
"CCCN(C)C(=O)n1c(=O)n(Cc2ccc(Cl)cc2)c2nc([S@](=N)(=O)CC)nc(N)c21 [Example 41-A, 6-Amino-9-[(4-chlorophenyl)methyl]-2-[S(R)-ethylsulfonimidoyl]-N-methyl-8-oxo-N-propyl-purine-7-carboxamide]",PD-L1 expression on tumor cells,[1],induced PD-L1 expression on tumor cells
same,PD-L1 expression on tumor cells,[1]; listed as compound 41-A,induces PD-L1 expression on tumor cells
same,tumor growth (tumor volume),[2],tumor stasis; also recorded: inhibition of tumor growth
same,survival of mice,[3],5/10
same,Examination of the liver for superficial tumor nodules (tumor nodule free),[4],0/10 tumor nodule free
